Results published in US20250099431A1, “GLP-1R MODULATING COMPOUNDS” (priority 2020, published 2025).

What was measured:
GLP-1R = GLP-1R (Homo sapiens (Human), UniProt P43220); assay: GLP-1R activation: cAMP increase in CHO cells stably expressing GLP-1R; format: cell-based; settings: cAMP increase, 10 point dose response, 30 minutes incubation at 37° C., read-out: EC50
Description: GLP-1R activation by a compound of the present disclosure was quantified by measuring cAMP increase in CHO cells stably expressing GLP-1R (MultiSpan product #C1267-1a). […] The cells were then incubated overnight at 37° C., 5% CO2. […] 1% BSA (Rockland Immunochemicals product #BSA-1000)). Following the medium change, the cells were incubated for 1 hour at 37° C., 5% CO2. The tested GLP-1 compound was added to the cells in a 10 point dose response followed by a 30 minutes incubation at 37° C., 5% CO2. cAMP concentration increase was then detected using Cisbio's cAMP Gs Dynamic Kit (product #62AM4PEC) according to the manufacturer's protocol. The response was plotted against the log of the agonist concentration and fitted to a sigmoidal equation to determine the EC50.

[1] = Microsomal stability (liver microsomal assay, mixed cofactors); predicted hepatic clearance; format: in vitro ADME; settings: liver microsomes 1.0 mg protein/mL (+UDPGA +NADPH), 1 μM analyte, 37° C.; scaled with human liver weight and hepatic blood flow 1.3 L/hr/kg
Description: Metabolic stability of compounds was assessed using human or rat liver microsomal assays (Corning). In these assays, 10 nL of each analyte at a concentration of 1 mM in 100% DMSO was dispensed into a well of a polypropylene plates using the Echo 550 acoustic liquid dispenser (Labcyte®). Each plate contained 384 wells with a single analyte in each well.
A solution of human (Corning® Gentest™ Human Mixed Pooled Microsomes or rat (Corning® Gentest™ Rat [Sprague-Dawley] Pooled Liver Microsomes) liver microsomes at 2 mg/ml in 100 mM K2HPO4/KH2PO4 at pH 7. 4 was combined with alamethicin from Trichoderma viride (Sigma-Aldrich) 0.0225 mg/ml. The mixture was incubated on ice for 15 minutes. 5 μL of this mixture was added to individual wells following a 15 minute incubation at room temperature and supplemented with 5 μL NADPH Regenerating Solution of cofactors (Corning® Gentest™ UGT Reaction Mix) containing 100 mM K2HPO4/KH2PO4 at pH 7.4, 2.6 mM NADP+, 6.6 mM glucose-6-phosphate, 6.6 mM MgCl2, 0.8 U/mL glucose-6-phosphate dehydrogenase, 0.1 mM sodium citrate, and 6.8 mM uridine diphosphate-glucuronic acid. The final concentration of each analyte compound at the beginning of the reaction was 1 μM. The reactions were incubated at 37° C. and samples were collected at time points of 0, 5, 15, 30, 40, 50, 60, and 70 minutes for further analysis. Background data were collected using reactions without analyte compounds.
Upon collection of the sample time points, samples were quenched with 30 μL of a solution of 72% acetonitrile, 8% methanol, 0.1% formic acid, 19.9% water, and internal standard (IS). Reaction plates were spun in a centrifuge at speed of 4,000 rcf for 30 minutes at 4° C., following a dilution of the 10 μL quenched reaction into 40 μL de-ionized water, yielding assay plates.
Assay plates were analyzed using solid-state extraction coupled with quadrupole time-of-flight mass spectrometer, using Agilent QToF 6530 RapidFire 360 system, with C4 type A solid state cartridges. Analysis was performed in either positive or negative ionization modes. Mobile phases contained 0.1% formic acid in water for loading analytes onto solid state extraction cartridges and 0.1% formic acid in acetonitrile for elution into a mass spectrometer in positive ionization mode, or 0.1% acetic acid in water for loading and 0.1% acetic acid in acetonitrile for extraction in negative ionization mode. Peak-area ratios of integrated counts for individual compounds to IS were plotted as semi-logarithmic chart of log vs time. The initial linear portion of decay was fitted to a linear regression equation to derive the half-time of analyte decay.
Pharmacological parameters for an analyte compound metabolism were calculated using the following equations: […]
wherein concentration refers to the protein concentration (mg/ml) in the reaction.
This scales the in vitro intrinsic clearance up to the value that would be predicted for the entire mass of liver tissue (but with no restriction by blood flow). The value depends upon the size of the liver (species-dependent) and the yield of microsomal protein as appropriate (assumed to be species-independent).
Hepatic clearance will depend upon the inter-relationship of intrinsic clearance and hepatic blood flow and was predicted from in vitro data using a variety of approaches.
The hepatic extraction is reported as the predicted clearance expressed as a proportion of hepatic blood flow.

Chain of GLP-1R (P43220 24-463): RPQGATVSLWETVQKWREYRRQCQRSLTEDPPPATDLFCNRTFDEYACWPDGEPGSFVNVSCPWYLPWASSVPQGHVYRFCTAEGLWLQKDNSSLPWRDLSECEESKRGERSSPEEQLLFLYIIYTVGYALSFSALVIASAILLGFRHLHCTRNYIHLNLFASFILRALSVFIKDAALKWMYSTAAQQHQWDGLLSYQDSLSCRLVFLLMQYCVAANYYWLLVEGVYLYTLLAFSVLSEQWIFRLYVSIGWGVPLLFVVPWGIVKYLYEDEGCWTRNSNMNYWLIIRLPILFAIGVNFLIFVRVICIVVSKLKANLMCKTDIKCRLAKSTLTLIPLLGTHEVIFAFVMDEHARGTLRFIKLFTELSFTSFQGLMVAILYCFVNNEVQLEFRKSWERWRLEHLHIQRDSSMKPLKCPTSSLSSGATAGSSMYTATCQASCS

SMILES	EC50 (GLP-1R) [nM]	Predicted Hepatic Clearance (Pred. Cl.) [1] [mL/min/kg]
O=C(O)c1ccc2nc(Cc3c(F)cc(-c4cccc5c4CN(c4ccc(Cl)cc4F)C5=O)cc3F)n(C[C@@H]3CCO3)c2c1 [Example 73, (S)-2-(4-(2-(4-chloro-2-fluorophenyl)-1-oxoisoindolin-4-yl)-2,6-difluorobenzyl)-1-(oxetan-2-ylmethyl)-1H-benzo[d]imidazole-6-carboxylic acid]	10000	2.5
COCCn1c(Cc2c(F)cc(-c3cccc4c3OC(CCC(=O)O)(c3ccc(Cl)cc3)N4)cc2F)nc2ccc(C(=O)O)cc21 (stereo not shown) [Example 10, 2-(4-(2-(2-carboxyethyl)-2-(4-chlorophenyl)-2,3-dihydrobenzo[d]oxazol-7-yl)-2,6-difluorobenzyl)-1-(2-methoxyethyl)-1H-benzo[d]imidazole-6-carboxylic acid]	130	12.7
COCCn1c(Cc2ccc(-c3cccc4c3OC(c3ccccc3)O4)cc2F)nc2ccc(C(=O)O)cc21 (single isomer, unassigned) [Example 36, 2-(2-fluoro-4-(2-phenylbenzo[d][1, 3]dioxol-4-yl)benzyl)-1-(2-methoxyethyl)-1H-benzo[d]imidazole-6-carboxylic acid]	242	8.67
CC1(c2ccc(Cl)cn2)Oc2cccc(-c3cc(F)c(Cc4nc5ccc(C(=O)O)cc5n4C[C@@H]4CCO4)cc3F)c2O1 (single isomer, unassigned) [Example 46]	17	4.33
COCCn1c(Cc2ccc(-c3cccc4c3OC(C)(c3ccc(Cl)cc3F)O4)[nH]c2=O)nc2ccc(C(=O)O)cc21 (stereo not shown) [Example 86, 2-((6-(2-(4-chloro-2-fluorophenyl)-2-methylbenzo[d][1, 3]dioxol-4-yl)-2-oxo-1,2-dihydropyridin-3-yl)methyl)-1-(2-methoxyethyl)-1H-benzo[d]imidazole-6-carboxylic acid]	13	2
COCCn1c(Cc2ccc(-c3cccc4c3OC(c3ccc(C#N)cc3F)O4)cc2F)nc2ccc(C(=O)O)cc21 (stereo not shown) [Example 4, 2-(4-(2-(4-cyano-2-fluorophenyl)benzo[d][1, 3]dioxol-4-yl)-2-fluorobenzyl)-1-(2-methoxyethyl)-1H-benzo[d]imidazole-6-carboxylic acid]	103	4.17
CC1(c2ccc(Cl)cn2)Oc2ccc(F)c(-c3ccc(Cc4nc5ccc(C(=O)O)cc5n4C[C@@H]4CCO4)c(F)c3)c2O1 (stereo partly drawn) [Example 76, 2-(4-(2-(5-chloropyridin-2-yl)-5-fluoro-2-methylbenzo[d][1, 3]dioxol-4-yl)-2-fluorobenzyl)-1-(((S)-oxetan-2-yl)methyl)-1H-benzo[d]imidazole-6-carboxylic acid]	4.3	8
COCCn1c(Cc2ccc(-c3cccc4c3OC(c3ccc(Cl)cc3F)C4)cc2F)nc2ccc(C(=O)O)cc21 (stereo not shown) [Example 79, 2-(4-(2-(4-chloro-2-fluorophenyl)-2,3-dihydrobenzofuran-7-yl)-2-fluorobenzyl)-1-(2-methoxyethyl)-1H-benzo[d]imidazole-6-carboxylic acid]	738	2.33
CC1(c2ccc(Cl)cc2F)Oc2cccc(-c3ccc(Cc4nc5ccc(C(=O)O)cc5n4C[C@@H]4CCO4)cn3)c2O1 (stereo partly drawn) [Example 77, 2-((6-(2-(4-chloro-2-fluorophenyl)-2-methylbenzo[d][1, 3]dioxol-4-yl)pyridin-3-yl)methyl)-1-(((S)-oxetan-2-yl)methyl)-1H-benzo[d]imidazole-6-carboxylic acid]	72	4.33
COCCn1c(Cc2ccc(-c3cccc4c3OC(C)(c3ccc(Cl)cc3F)O4)cc2F)nc2ccc(C(=O)O)cc21 (stereo not shown) [Example 80, 2-(4-(2-(4-chloro-2-fluorophenyl)-2-methylbenzo[d][1, 3]dioxol-4-yl)-2-fluorobenzyl)-1-(2-methoxyethyl)-1H-benzo[d]imidazole-6-carboxylic acid]	11	4
CC1(c2ccc(Cl)cn2)Oc2cccc(-c3cc(F)c(Cc4nc5ccc(C(=O)O)cc5n4C[C@@H]4CCO4)cc3F)c2O1 (stereo partly drawn) [Example 29, 2-(4-(2-(5-chloropyridin-2-yl)-2-methylbenzo[d][1, 3]dioxol-4-yl)-2,5-difluorobenzyl)-1-(((S)-oxetan-2-yl)methyl)-1H-benzo[d]imidazole-6-carboxylic acid]	0.076	4.67

Other lines, results leading:

EC50 (GLP-1R) [nM]	Predicted Hepatic Clearance (Pred. Cl.) [1] [mL/min/kg]	SMILES
0.86	<1.83	CC1(c2ccc(Cl)cc2F)Oc2cccc(-c3cc(F)c(Cc4nc5ccc(C(=O)O)nc5n4CC4(CF)CC4)c(F)c3)c2O1 (stereo not shown) [Example 21, 2-(4-(2-(4-chloro-2-fluorophenyl)-2-methylbenzo[d][1, 3]dioxol-4-yl)-2,6-difluorobenzyl)-3-((1-(fluoromethyl)cyclo-propyl)methyl)-3H-imidazo[4,5-b]pyridine-5-carboxylic acid]
161	<1.83	COCCn1c(Cc2c(F)cc(-c3cccc4c3OC(c3ccc(C#N)cc3F)O4)cc2F)nc2ccc(C(=O)O)cc21 (stereo not shown) [Example 5, 2-(4-(2-(4-cyano-2-fluorophenyl)benzo[d][1, 3]dioxol-4-yl)-2,6-difluorobenzyl)-1-(2-methoxyethyl)-1H-benzo[d]imidazole-6-carboxylic acid]
0.64	15.2	CC1(c2ccc(Cl)cc2F)Oc2cccc(-c3cc(F)c(Cc4nc5c(F)cc(C(=O)O)cc5n4CC4(CC#N)CC4)c(F)c3)c2O1 (single isomer, unassigned) [Example 106, 2-(4-(2-(4-chloro-2-fluorophenyl)-2-methylbenzo[d][1, 3]dioxol-4-yl)-2,6-difluorobenzyl)-1-((1-(cyanomethyl)cyclopropyl)methyl)-4-fluoro-1H-benzo[d]imidazole-6-carboxylic acid]
6.3	3.17	COCCn1c(Cc2c(F)cc(-c3cccc4c3OC(C)(c3ccc(C(F)(F)F)cc3F)O4)cc2F)nc2ccc(C(=O)O)cc21 (stereo not shown) [Example 58, 2-(2,6-difluoro-4-(2-(2-fluoro-4-(trifluoromethyl)phenyl)-2-methylbenzo[d][1, 3]dioxol-4-yl)benzyl)-1-(2-methoxyethyl)-1H-benzo[d]imidazole-6-carboxylic acid]
49	2.83	COCCn1c(Cc2cc(F)c(-c3cccc4c3OC(C)(c3ccc(Cl)cc3F)O4)cc2F)nc2ccc(-c3nn[nH]n3)cc21 (stereo not shown) [Example 84, 2-(4-(2-(4-chloro-2-fluorophenyl)-2-methylbenzo[d][1, 3]dioxol-4-yl)-2,5-difluorobenzyl)-1-(2-methoxyethyl)-6-(2H-tetrazol-5-yl)-1H-benzo[d]imidazole]
0.52	6	CC1(c2ccc(C#N)cc2F)Oc2cccc(-c3cc(F)c(Cc4nc5ccc(C(=O)O)cc5n4C[C@@H]4CCO4)c(F)c3)c2O1 (single isomer, unassigned) [Example 93]
